Results from doi:10.1101/2022.12.30.522309v1 (biorxiv, 2022).

Target: T1, human FFA2R (Homo sapiens, UniProt O15552)
T1 sequence (O15552 1-330): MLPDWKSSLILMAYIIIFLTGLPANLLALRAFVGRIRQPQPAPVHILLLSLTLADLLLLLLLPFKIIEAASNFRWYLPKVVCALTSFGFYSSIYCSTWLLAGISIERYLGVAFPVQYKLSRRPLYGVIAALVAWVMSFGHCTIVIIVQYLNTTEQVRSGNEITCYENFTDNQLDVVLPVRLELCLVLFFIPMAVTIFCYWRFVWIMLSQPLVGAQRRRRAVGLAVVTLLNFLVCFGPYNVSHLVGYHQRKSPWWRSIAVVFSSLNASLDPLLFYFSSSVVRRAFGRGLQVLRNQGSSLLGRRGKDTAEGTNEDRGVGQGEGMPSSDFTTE
Experiment: inhibition of forskolin-induced cAMP, LANCE Ultra TR-FRET, HEK293
Assay type: cell-based

EC50: 1240 µM
SMILES: CC(=O)CC(=O)O [acetoacetate]
